Columns and labels:
EW-3 (Ewing's Sarcoma) = test: combination Emax (second highest fraction inhibited in the dose matrix, 72 h); higher = more inhibition; extreme values may be limits of the assay
Procedure, shortened: (§1)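 Cell lines in DMEM/F12 or RPMI with 10% FBS were plated in 1536-well plates, held 24 hours at 37°C, 5% CO2, then given two-drug dose matrices for 72 hours (DMSO typically 0.2%). Viability was read by CellTiter-Glo 2.0 luminescence and scaled as inhibition from 0 (vehicle wells) to 1 (blank wells). Combination Emax is the second-highest inhibition in the matrix; Bliss excess is observed combination effect minus expected EA + EB − EA·EB, EA and EB being single-agent effects.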

[1] = tested on: NCI-N87 (Gastric Carcinoma); test: as above
Procedure, shortened: as §1

[2] = tested on: KYSE-50 (Esophageal Squamous Cell Carcinoma); test: as above
Procedure, shortened: as §1

[3] = tested on: LOU-NH91 (Squamous Cell Lung Carcinoma); test: as above
Procedure, shortened: as §1

[4] = tested on: EMC-BAC-2 (Non-Small Cell Lung Carcinoma); test: as above
Procedure, shortened: as §1

[5] = tested on: MFE-319 (Endometrial Carcinoma); test: as above
Procedure, shortened: as §1

[6] = tested on: HSC-2 (Oral Cavity Carcinoma); test: as above
Procedure, shortened: as §1

[7] = tested on: LC4-1 (B-Lymphoblastic Leukemia); test: as above
Procedure, shortened: as §1

IMR-5 (Neuroblastoma) = test: as above
Procedure, shortened: as §1

[8] = tested on: KINGS-1 (Low Grade Glioma); test: as above
Procedure, shortened: as §1

[9] = tested on: KYSE-150 (Esophageal Squamous Cell Carcinoma); test: as above
Procedure, shortened: as §1

RPMI-7951 (Melanoma) = test: as above
Procedure, shortened: as §1

A704 (Kidney Carcinoma) = test: as above
Procedure, shortened: as §1

[10] = tested on: JHH-7 (Hepatocellular Carcinoma); test: Bliss excess, mean over the matrix (fraction); higher = more synergy
Procedure, shortened: as §1

[11] = tested on: NCI-H2347 (Lung Adenocarcinoma); test: as above
Procedure, shortened: as §1

[12] = tested on: SCC-3 (B-Cell Non-Hodgkin's Lymphoma); test: as above
Procedure, shortened: as §1

[13] = tested on: ASH-3 (Thyroid Gland Carcinoma); test: as above
Procedure, shortened: as §1

[14] = tested on: HSC-2 (Oral Cavity Carcinoma); test: as above
Procedure, shortened: as §1

[15] = tested on: KLE (Endometrial Carcinoma); test: as above
Procedure, shortened: as §1

[16] = tested on: KP-2 (Pancreatic Carcinoma); test: as above
Procedure, shortened: as §1
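For Bliss excess, mean over the matrix in this document: after 72 h of two-drug dosing.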

Row | Compound | combination Emax (EW-3 (Ewing's Sarcoma)) | combination Emax [1] | combination Emax [2] | combination Emax [3] | combination Emax [4] | combination Emax [5] | combination Emax [6] | combination Emax [7] | combination Emax (IMR-5 (Neuroblastoma)) | combination Emax [8] | combination Emax [9] | combination Emax (RPMI-7951 (Melanoma)) | combination Emax (A704 (Kidney Carcinoma)) | Bliss excess [10] | Bliss excess [11] | Bliss excess [12] | Bliss excess [13] | Bliss excess [14] | Bliss excess [15] | Bliss excess [16]
1 | Cn1cnc2c(F)c(Nc3ccc(Br)cc3Cl)c(C(=O)NOCCO)cc21 [Selumetinib] + CCN(CCO)CCCOc1ccc2c(Nc3cc(CC(=O)Nc4cccc(F)c4)[nH]n3)ncnc2c1 [AZD2811] (first compound max 10 µM, 7x7, partner max 1 µM) | 0.444 | 0.305 | 0.409 | 0.372 | 0.398 | 0.262 | 0.376 | 0.891 | 1 | 0.22 | 0.492 | 0.425 | 0.178 | -0.0518 | 0.0258 | 0.11 | 0.0505 | -0.0278 | -0.0456 | 0.0449
2 | C=CCn1c(=O)c2cnc(Nc3ccc(N4CCN(C)CC4)cc3)nc2n1-c1cccc(C(C)(C)O)n1 [AZD1775] + O=C(c1cc(Cc2n[nH]c(=O)c3ccccc23)ccc1F)N1CCN(C(=O)C2CC2)CC1 [Olaparib] (first compound max 1 µM, partner max 10 µM) | 0.661 | 0.711 | 0.301 | 0.383 | 0.269 | 0.619 | 0.63 | 0.92 | 0.83 | 0.381 | 0.493 | 0.766 | 0.462 | -0.0398 | -0.0921 | -0.0259 | -0.0054 | -0.0249 | -0.0499 | -0.0145
3 | COc1nnc2ccc(N3CCC(c4ccc(OCCN5CCN(C)C(=O)[C@H]5C)cc4)CC3)nn12 [AZD5153] + CC1(C)CCC(CN2CCN(c3ccc(C(=O)NS(=O)(=O)c4ccc(NCC5CCOCC5)c([N+](=O)[O-])c4)c(Oc4cnc5[nH]ccc5c4)c3)CC2)=C(c2ccc(Cl)cc2)C1 [Venetoclax] (first compound max 1 µM, 7x7, partner max 1 µM) | 0.751 | 0.592 | 0.501 | 0.641 | 0.661 | 0.324 | 0.662 | 1 | 0.885 | 0.159 | 0.627 | 0.559 | 0.585 | -0.0676 | -0.11 | -0.0213 | 0.0122 | -0.0196 | -0.0384 | -0.0381
4 | CC(=O)Nc1cccc(-n2c(=O)n(C3CC3)c(=O)c3c(Nc4ccc(I)cc4F)n(C)c(=O)c(C)c32)c1 [Trametinib] + Cc1nc(-c2cn3c(n2)-c2ccc(-c4cnn(C(C)(C)C(N)=O)c4)cc2OCC3)n(C(C)C)n1 [Taselisib] (first compound max 1 µM, 7x7, partner max 10 µM) | 0.364 | 0.913 | 0.757 | 0.672 | 0.945 | 0.799 | 1 | 0.328 | 0.368 | 0.894 | 0.886 | 0.931 | 0.892 | 0.0427 | 0.135 | 0.206 | 0.127 | 0.137 | -0.0509 | 0.192
5 | CC(=O)c1c(C)c2cnc(Nc3ccc(N4CCNCC4)cn3)nc2n(C2CCCC2)c1=O [Palbociclib] + Cn1cnc2c(F)c(Nc3ccc(Br)cc3Cl)c(C(=O)NOCCO)cc21 [Selumetinib] (first compound max 10 µM, 7x7, partner max 10 µM) | 0.45 | 0.498 | 0.357 | 0.213 | 0.362 | 0.31 | 0.391 | 0.614 | 0.612 | 0.232 | 0.684 | 0.546 | 0.705 | -0.0039 | -0.0362 | 0.0581 | -0.0805 | 0.0254 | 0.0167 | -0.0153
6 | Cc1c2c(nn1C)CSCc1cc(n(C)n1)CSc1cc(c3ccccc3c1)OCCCc1c(C(=O)O)n(C)c3c-2c(Cl)ccc13 [AZD5991] + Cn1cnc2c(F)c(Nc3ccc(Br)cc3Cl)c(C(=O)NOCCO)cc21 [Selumetinib] (first compound max 1 µM, 7x7, partner max 3 µM) | 0.549 | 0.426 | 0.292 | 0.581 | 0.834 | 0.604 | 0.907 | 1 | 0.983 | 0.354 | 0.488 | 0.934 | 0.306 | -0.0649 | -0.0006 | 0.0783 | 0.0175 | -0.0024 | -0.0374 | 0.137
7 | Cc1cc2ncnn2cc1Nc1ncc2c(n1)n(C1CCOCC1)c(=O)n2C [AZD7648] + O=C(c1cc(Cc2n[nH]c(=O)c3ccccc23)ccc1F)N1CCN(C(=O)C2CC2)CC1 [Olaparib] (first compound max 10 µM, 7x7, partner max 10 µM) | 0.657 | 0.301 | 0.0839 | 0.186 | 0.204 | 0.118 | 0.228 | 0.442 | 0.475 | 0.189 | 0.537 | 0.303 | 0.226 | -0.0356 | -0.0144 | -0.0757 | 0.0057 | -0.0277 | -0.013 | -0.0017
8 | COc1cccc(OCCCN)c1-c1cc(Nc2cnc(C#N)cn2)n[nH]1 [Prexasertib] + CN(C)CCCOc1ccc(-c2ccc3ncc4c(c3c2)n(C2CCOCC2)c(=O)n4C)cn1 [AZD0156] (first compound max 1 µM, 7x7, partner max 1 µM) | 0.683 | 0.706 | 0.844 | 0.445 | 0.591 | 0.815 | 0.776 | 0.978 | 0.963 | 0.528 | 0.365 | 0.953 | 0.485 | -0.021 | -0.0178 | 0.0103 | 0.0014 | -0.0532 | 0.002 | -0.0286
9 | C[C@@H]1COCCN1c1cc(C2([S@](C)(=N)=O)CC2)nc(-c2ccnc3[nH]ccc23)n1 [AZD6738] + O=C(c1cc(Cc2n[nH]c(=O)c3ccccc23)ccc1F)N1CCN(C(=O)C2CC2)CC1 [Olaparib] (first compound max 10 µM, 7x7, partner max 10 µM) | 0.962 | 0.693 | 0.437 | 0.236 | 0.446 | 0.567 | 0.721 | 0.952 | 0.958 | 0.376 | 0.567 | 0.886 | 0.438 | 0.0012 | -0.0515 | 0.0103 | 0.0361 | 0.0825 | -0.0307 | 0.0024
10 | CN(C)CCCOc1ccc(-c2ccc3ncc4c(c3c2)n(C2CCOCC2)c(=O)n4C)cn1 [AZD0156] + CCN(CCO)CCCOc1ccc2c(Nc3cc(CC(=O)Nc4cccc(F)c4)[nH]n3)ncnc2c1 [AZD2811] (first compound max 1 µM, 7x7, partner max 1 µM) | 0.34 | 0.253 | 0.204 | 0.208 | 0.253 | 0.147 | 0.289 | 0.808 | 0.967 | 0.167 | 0.422 | 0.257 | 0.156 | -0.0296 | -0.0299 | 0.112 | 0.0032 | 0.0232 | -0.0232 | -0.0086
11 | COc1cccc(OCCCN)c1-c1cc(Nc2cnc(C#N)cn2)n[nH]1 [Prexasertib] + Cc1cc2ncnn2cc1Nc1ncc2c(n1)n(C1CCOCC1)c(=O)n2C [AZD7648] (first compound max 1 µM, 7x7, partner max 10 µM) | 0.736 | 0.776 | 0.818 | 0.44 | 0.538 | 0.865 | 0.778 | 0.97 | 0.98 | 0.607 | 0.513 | 0.971 | 0.504 | -0.0143 | -0.0552 | -0.0082 | 0.0598 | -0.0403 | 0.0213 | 0.0258
12 | CN(CCO)CC[C@H](CSc1ccccc1)Nc1ccc(S(=O)(=O)NC(=O)c2ccc(N3CCC([C@@H](O)c4ccccc4-c4ccc(Cl)cc4)CC3)cc2)cc1S(=O)(=O)C(F)(F)F [AZD4320] + CN(C)CCCOc1ccc(-c2ccc3ncc4c(c3c2)n(C2CCOCC2)c(=O)n4C)cn1 [AZD0156] (first compound max 1 µM, 7x7, partner max 1 µM) | 0.95 | 0.477 | 0.0706 | 0.476 | 0.185 | 0.288 | 0.269 | 1 | 0.608 | 0.588 | 0.206 | 0.333 | 0.496 | -0.0408 | -0.0378 | 0.0226 | 0.0341 | -0.0242 | -0.0824 | -0.0444
13 | NC1(C(=O)N[C@@H](CCO)c2ccc(Cl)cc2)CCN(c2ncnc3[nH]ccc23)CC1 [Capivasertib] + CC(=O)c1c(C)c2cnc(Nc3ccc(N4CCNCC4)cn3)nc2n(C2CCCC2)c1=O [Palbociclib] (first compound max 10 µM, 7x7, partner max 10 µM) | 0.414 | 0.76 | 0.326 | 0.5 | 0.663 | 0.611 | 0.582 | 0.578 | 0.581 | 0.414 | 0.644 | 0.854 | 0.665 | -0.0238 | -0.0459 | 0.0001 | -0.0235 | -0.0207 | -0.0214 | -0.0261
